Measured values published in patent US11884627B2, “Compounds and compositions for treating conditions associated with LPA receptor activity” (Lhotse Bio, Inc., priority 2022, dated 2024).
Where two headings read alike, the source gives them in different places.

Target: T1, human LPA1 (Homo sapiens, UniProt Q92633)
T1 construct: expressed in transfected cells; host or cells: CHO-K1
Test: In vitro LPA1 calcium flux antagonist assay - Bioduro protocol
Format: cell-based
Settings: CHO-K1 cells overexpressing human LPA1 and G15a, LPA challenge at EC80
In short: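 Calcium mobilization read on FLIPR after EC80 LPA was added to compound-pretreated (30 min) CHO-K1 cells co-expressing human LPA1 and G15a. Cells were starved 4 h and dye-loaded with Fluo-8 AM/2.5 mM probenecid in HBSS-Hepes; inhibition normalized between DMSO and LPA-control RFU.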

[1] = calcium mobilization on FLIPR Tetra, read-out: IC50
[2] = Table B3, read-out: Activity (IC50 class)

T1 sequence (Q92633 whole entry): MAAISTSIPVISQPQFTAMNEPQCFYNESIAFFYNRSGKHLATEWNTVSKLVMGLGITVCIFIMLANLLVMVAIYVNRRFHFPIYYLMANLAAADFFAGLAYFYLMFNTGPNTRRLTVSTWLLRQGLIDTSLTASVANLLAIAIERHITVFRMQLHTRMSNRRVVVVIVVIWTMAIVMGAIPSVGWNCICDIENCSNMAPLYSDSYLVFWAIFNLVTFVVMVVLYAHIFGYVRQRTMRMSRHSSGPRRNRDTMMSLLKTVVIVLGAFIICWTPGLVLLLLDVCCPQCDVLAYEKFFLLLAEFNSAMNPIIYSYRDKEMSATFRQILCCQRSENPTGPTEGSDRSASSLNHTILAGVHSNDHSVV

Compound | IC50 [1] [µM] | IC50 [2] [µM]
COc1cc(-c2c(CC#N)cc(NC3(C(=O)O)CCOCC3)cc2COC2CCCC2)cc(OC)c1C [Compound 233] | 0.914 | 0.1 to 1
COc1cc(-c2ccc(C3(C(=O)O)CCOCC3)cc2COC2CCCC2)cc(OC)c1C [Compound 234] | 5.19 | > 1
COc1cc(-c2ccc(C3(C(=O)O)CCOCC3)cc2COC2CCCC2)c(Cl)c(OC)c1C [Compound 235] | 0.198 | 0.1 to 1
COc1cc(-c2ccc(CC3(C(=O)O)CCOCC3)cc2COC2CCCC2)c(Cl)c(OC)c1C [Compound 236] | 4.71 | > 1
COc1cc(-c2ccc(N(C)C3(C(=O)O)CCOCC3)cc2COC2CCCC2)c(F)c(OC)c1C [Compound 239] | 0.97 | 0.1 to 1
COc1cc(-c2ccc(NC3(C(=O)O)CCOCC3)cc2COC2CCCC2)c(F)c(C2CC2)c1 [Compound 240] | 0.0234 | < 0.1
COc1cc(-c2cc(F)c(NC3(C(=O)O)CCOCC3)cc2COC2CCCC2)c(F)c(OC)c1C [Compound 243] | 0.0829 | 0.1 to 1
CCOc1cccc(-c2ccc(NC3(C(=O)O)CCOCC3)cc2COC2CCCC2)c1C(F)F [Compound 244] | 0.00273 | < 0.1
CCOc1cccc(-c2ccc(NC3(C(=O)O)CCOCC3)cc2COC2CCCC2)c1F [Compound 245, 4-((2-((cyclopentyloxy)methyl)-3′-ethoxy-2′-fluoro-[1,1′-biphenyl]-4-yl)amino)tetrahydro-2H-pyran-4-carboxylic acid] | 0.0232 | < 0.1
CCOc1cc(OC)cc(-c2ccc(OC3(C(=O)O)CCOCC3)cc2COC2CCCC2)c1F [Compound 246] | 0.0243 | < 0.1
COc1cc(-c2ccc(OC3(C(=O)O)CCOCC3)cc2CO[C@@H]2CCOC2)c(F)c(OC)c1C [Compound 247] | 1.61 | > 1
COc1cc(OC2CC2)c(F)c(-c2ccc(NC3(C(=O)O)CCOCC3)cc2COC2CCCC2)c1 [Compound 249, 4-((2-((cyclopentyloxy)methyl)-3′-cyclopropoxy-2′-fluoro-5′-methoxy-[1,1′-biphenyl]-4-yl)amino)tetrahydro-2H-pyran-4-carboxylic acid] | 0.00113 | < 0.1
COc1cc(OC2CC2)cc(-c2ccc(NC3(C(=O)O)CCOCC3)cc2COC2CCCC2)c1F [Compound 250] | 0.0317 | < 0.1
COc1cc(C2CC2)cc(-c2ccc(NC3(C(=O)O)CCOCC3)cc2COC2CCCC2)c1F [Compound 251] | 0.0402 | < 0.1
COc1cc(-c2c(C)cc(NC3(C(=O)O)CCOCC3)cc2COC2CCCC2)nc(OC)c1C [Compound 253, 4-((3-((cyclopentyloxy)methyl)-4-(4,6-dimethoxy-5-methylpyridin-2-yl)-5-methylphenyl)amino)tetrahydro-2H-pyran-4-carboxylic acid] | 0.0543 | < 0.1
COc1cc(OC)c(Cl)c(-c2ccc(NC3(C(=O)O)CCOCC3)cc2COC2CCCC2)c1 [Compound 257] | 0.00841 | < 0.1
COc1cc(-c2ccc(OC3(C(=O)O)CCOCC3)cc2CCC2CCOC2)c(F)c(OC)c1C (centres unmarked) [Compound 260] | 0.174 | 0.1 to 1
COc1cc(-c2ccc(NC3(C(=O)O)CCOCC3)cc2COC2CCCC2)c(Cl)c(OC)c1F [Compound 261] | 0.0519 | < 0.1
COc1cc(-c2ccc(NC3(C(=O)O)CCOCC3)cc2COC2CCCC2)c(Cl)c(OC)c1C#N [Compound 262] | 0.0308 | < 0.1
COc1cc(-c2ccc(NC3(C(=O)O)CCOCC3)cc2COC2CCC2)c(F)c(OC)c1C [Compound 263] | 0.0604 | < 0.1
CCOc1cccc(-c2ccc(NC3(C(=O)O)CCOCC3)cc2COC2CCCC2)c1Cl [Compound 264] | 0.00542 | < 0.1
O=C(O)C1(Nc2ccc(-c3cccc(OC4CC4)c3F)c(COC3CCCC3)c2)CCOCC1 [Compound 265, 4-((2-((cyclopentyloxy)methyl)-3′-cyclopropoxy-2′-fluoro-[1,1′-biphenyl]-4-yl)amino)tetrahydro-2H-pyran-4-carboxylic acid] | 0.012 | < 0.1
CCOc1c(F)ccc(-c2ccc(NC3(C(=O)O)CCOCC3)cc2COC2CCCC2)c1F [Compound 266] | 0.142 | 0.1 to 1
CCOc1cccc(-c2ccc(NC3(C(=O)O)CCOCC3)cc2CCC2CCOC2)c1F (centres unmarked) [Compound 267] | 0.068 | < 0.1
COc1c(C)c(OC)c(F)c(-c2ccc(NC3(C(=O)O)CCOCC3)cc2COC2CCCC2)c1F [Compound 270] | 0.0798 | < 0.1
COc1cc(-c2ccc(NC3(C(=O)O)CCOCC3)cc2COC2CCCC2)c(F)c(OC)c1C(C)=O [Compound 271] | 0.0214 | < 0.1
CCOc1cccc(-c2ccc(NC3(C(=O)O)CCOCC3)cc2CCC2CCCC2)c1F [Compound 272] | 0.00696 | < 0.1
COc1cc(-c2c(COC3CCCC3)cc(NC3(C(=O)O)CCOCC3)cc2C(F)F)cc(OC)c1C [Compound 273] | 0.0171 | < 0.1

Compound | IC50 [1] [µM] | IC50 [2] [µM]
COc1cc(-c2ccc(NC3(C(=O)O)CCOCC3)cc2COC2CCCC2)cc(OC)c1C(F)F [Compound 274] | 0.028 | < 0.1
COc1cc(-c2c(COC3CCCC3)cc(NC3(C(=O)O)CCOCC3)cc2C(F)(F)F)cc(OC)c1C [Compound 275] | 0.229 | 0.1 to 1
COc1cc(-c2ccc(NC3(C(=O)O)CCOCC3)cc2COC2CCCCC2)c(F)c(OC)c1C [Compound 276] | 0.0254 | < 0.1
CC(C)COc1cccc(-c2ccc(NC3(C(=O)O)CCOCC3)cc2COC2CCCC2)c1F [Compound 277] | 0.0727 | < 0.1
CCNc1cccc(-c2ccc(NC3(C(=O)O)CCOCC3)cc2COC2CCCC2)c1F [Compound 278, 4-((2-((cyclopentyloxy)methyl)-3′-(ethylamino)-2′-fluoro-[1,1′-biphenyl]-4-yl)amino)tetrahydro-2H-pyran-4-carboxylic acid] | 0.0366 | < 0.1
CCOc1cccc(-c2ccc(NC3(C(=O)O)CCOCC3)cc2COC2CC2)c1C(F)F [Compound 279, 4-((2-(cyclopropoxymethyl)-2′-(difluoromethyl)-3′-ethoxy-[1,1′-biphenyl]-4-yl)amino)tetrahydro-2H-pyran-4-carboxylic acid] | 0.00419 | < 0.1
COc1cc(-c2ccc(OC3(C(=O)O)CCOCC3)cc2CO[C@H]2CCOC2)c(F)c(OC)c1C [Compound 281] | 0.11 | 0.1 to 1
CCCc1cccc(-c2ccc(NC3(C(=O)O)CCOCC3)cc2COC2CCCC2)c1F [Compound 286] | 0.00987 | < 0.1
CCOc1cc(OC)cc(-c2ccc(NC3(C(=O)O)CCOCC3)cc2COC2CCCC2)c1F [Compound 287] | 0.00246 | < 0.1
CCOc1cc(OC)cc(-c2ccc(NC3(C(=O)O)CCOCC3)cc2COC2CC2)c1F [Compound 288] | 0.0119 | < 0.1
O=C(O)C1(Nc2ccc(-c3cccc(OC4CC4)c3F)c(COC3CC3)c2)CCOCC1 [Compound 289] | 0.051 | < 0.1
COc1cc(OC2CC2)c(F)c(-c2ccc(NC3(C(=O)O)CCOCC3)cc2COC2CC2)c1 [Compound 290] | 0.0158 | < 0.1
O=C(O)C1(Nc2ccc(-c3cccc(OC4CCC4)c3F)c(COC3CC3)c2)CCOCC1 [Compound 291] | 0.173 | < 0.1
COc1cc(OC)c(F)c(-c2ccc(NC3(C(=O)O)CCOCC3)cc2COC2CC2)c1 [Compound 292] | 0.117 | 0.1 to 1
COc1cc(-c2ccc(NC3(C(=O)O)CCOCC3)cc2COC2CC2)c(Cl)c(OC)c1C [Compound 293] | 0.00572 | < 0.1
CCOc1cccc(-c2ccc(NC3(C(=O)O)CCOCC3)cc2CCC2CC2)c1C(F)F [Compound 296] | 0.0024 | < 0.1
CCOc1cc(OC)c(F)c(-c2ccc(NC3(C(=O)O)CCOCC3)cc2COC2CCCC2)c1 [Compound 297] | 0.137 | 0.1 to 1
COc1cc(-c2ccc(NC3(C(=O)O)CCOCC3)cc2COC2CCCC2)c(F)c(OC)c1C(C)O (centres unmarked) [Compound 299] | 0.0384 | < 0.1
COc1cc(-c2ccc(NC3(C(=O)O)CCOCC3)cc2COC2CCCC2)c(F)c(OC)c1C(C)O (centres unmarked) [Compound 300] | 0.0353 | < 0.1
O=C(O)C1(Nc2ccc(-c3cccc(OC4CC4)c3C(F)F)c(COC3CCCC3)c2)CC1 [Compound 301] | 0.0125 | < 0.1
COc1cc(OC)c(C(F)F)c(-c2ccc(NC3(C(=O)O)CCOCC3)cc2COC2CC2)c1 [Compound 302] | 0.0852 | 0.1 to 1
COc1cc(OC)c(Cl)c(-c2ccc(NC3(C(=O)O)CCOCC3)cc2COC2CC2)c1 [Compound 303] | 0.0123 | < 0.1
O=C(O)C1(Nc2ccc(-c3cccc(OC4CC4)c3)c(COC3CC3)c2)CCOCC1 [Compound 304] | 0.00564 | > 1
O=C(O)C1(Nc2ccc(-c3cccc(CCO)c3F)c(COC3CC3)c2)CCOCC1 [Compound 305] | 0.711 | > 1
CCOc1cccc(-c2ccc(NC3(C(=O)O)CCOCC3)cc2COC2CC2)c1F [Compound 306] | 0.165 | 0.1 to 1
CCCOc1cccc(-c2ccc(NC3(C(=O)O)CCOCC3)cc2COC2CC2)c1F [Compound 307] | 0.0584 | < 0.1
COc1cc(-c2c(C)cc(NC3(C(=O)O)CCOCC3)cc2CCC2CCOC2)cc(OC)c1C (centres unmarked) [Compound 308] | 0.0236 | < 0.1
